# Test results as given in US9695155B2, “Herbicidal substituted pyrimidinyloxy benzene compounds” (E. I. DU PONT DE NEMOURS AND COMPANY, priority 2013, dated 2017).
# How the values were obtained:
# wheat, winter = assay: Test C postemergence; type: in vivo, Triticum aestivum
# Excerpt: (§1) Seeds of plant species selected from blackgrass (Alopecurus myosuroides), Italian ryegrass (Lolium multiflorum), wheat, winter (winter wheat, Triticum aestivum), galium (catchweed bedstraw, Galium aparine), corn (Zea mays), large (Lg) crabgrass (Digitaria sanguinalis), giant foxtail (Setaria faberii), johnsongrass (Sorghum halepense), lambsquarters (Chenopodium album), morningglory (Ipomoea coccinea), yellow nutsedge (Cyperus esculentus), pigweed (Amaranthus retroflexus), ragweed (common ragweed, Ambrosia elatior), soybean (Glycine max), barnyardgrass (Echinochloa crus-galli), oilseed rape (Brassica napus), waterhemp (common waterhemp, Amaranthus rudis), kochia (Kochia scoparia), wild oat (Avena fatua), surinam grass (Brachiaria decumbens), foxtail, green (green foxtail, Setaria viridis), goosegrass (Eleusine indica), bromegrass, downy (downy bromegrass, Bromus tectorum), nightshade (eastern black nightshade, Solanum ptycanthum), cocklebur (common cocklebur, Xanthium strumarium), cupgrass, woolly (woolly cupgrass, Eriochloa villosa), bermudagrass (Cynodon dactylon), sunflower, (common oilseed sunflower, Helianthus annuus), Russian thistle (Salsola kali), and velvetleaf (Abutilon theophrasti) were planted into a blend of loam soil and sand and treated preemergence with test chemicals formulated in a non-phytotoxic solvent mixture which included a surfactant.
# (§2) At the same time, plants selected from these crop and weed species and also barley, winter (winter barley, Hordeum vulgare), windgrass (Apera spica-venti), chickweed (common chickweed, Stellaria media), deadnettle (henbit deadnettle, Lamium amplexicaule), and canarygrass (littleseed canarygrass, Phalaris minor) were planted in pots containing Redi-Earth® planting medium (Scotts Company, 14111 Scottslawn Road, Marysville, Ohio 43041) comprising spaghnum peat moss, vermiculite, wetting agent and starter nutrients and treated with postemergence applications of test chemicals formulated in the same manner. Plants ranged in height from 2 to 18 cm (1- to 4-leaf stage) for postemergence treatments. Treated plants and controls were maintained in a greenhouse for 13 to 15 days, after which time all species were compared to controls and visually evaluated. Plant response ratings, summarized in Table C, are based on a scale of 0 to 100 where 0 is no effect and 100 is complete control. A dash (-) response means no test result.
# lambsquarters = assay: Test C postemergence; type: in vivo, Chenopodium album
# Excerpt: as §1, §2
# barnyardgrass = assay: Test B flooded paddy test; type: in vivo, Echinochloa crus-galli; conditions: Flood, 250 g ai/ha, 0 to 100 scale where 0 is no effect and 100 is complete control
# Procedure, shortened: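 Visual ratings on a 0 to 100 scale, where 100 means complete control, compared treated plants with controls after 13 to 15 days in a greenhouse. Treatment went into paddy water 3 cm deep over the soil, applied to plants at the 2-leaf stage.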
# large (Lg) crabgrass = assay: Test A postemergence; type: in vivo, Digitaria sanguinalis
# Procedure, shortened: (§3)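 Compounds in non-phytotoxic solvent with surfactant applied as soil spray preemergence, or postemergence to plants 2-10 cm at one- to two-leaf stage, in loam/sand. After approximately 10 days in greenhouse, injury rated visually versus untreated controls, 0 (no effect) to 100 (complete control).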
# oilseed rape = assay: Test C postemergence; type: in vivo, Brassica napus
# Excerpt: as §1, §2
# morningglory = assay: Test C postemergence; type: in vivo, Ipomoea coccinea
# Excerpt: as §1, §2
# ragweed = assay: Test C postemergence; type: in vivo, Ambrosia elatior
# Excerpt: as §1, §2
# soybean = assay: Test C postemergence; type: in vivo, Glycine max
# Excerpt: as §1, §2
# velvetleaf = assay: Test A postemergence; type: in vivo, Abutilon theophrasti
# Procedure, shortened: as §3
# [1] = Postemergence, 31 g ai/ha, scale 0 to 100 (0 no effect, 100 complete control), 13 to 15 days
# [2] = Postemergence, 62 g ai/ha, scale 0 to 100 (0 no effect, 100 complete control)
# [3] = 125 g ai/ha, 0 to 100 scale where 0 is no effect and 100 is complete control
# [4] = 500 g ai/ha, 0 to 100 scale, 0 no effect, 100 complete control
structure (smiles),measurement,setting,value
N#Cc1cccc(Oc2ncc(Br)cn2)c1-n1cc(Br)cn1 [Compound 57],"Plant response rating (0 to 100), Wheat","wheat, winter; 125 g ai/ha, postemergence",10
same,"Plant response rating (0 to 100), Wheat","wheat, winter; 250 g ai/ha, postemergence",15
same,"Plant response rating, Wheat","wheat, winter; [1]",0
same,"Plant response rating, Wheat","wheat, winter; [2]",5
same,"Plant response rating (0 to 100), Lambsquarters","lambsquarters; 125 g ai/ha, postemergence",70
same,"Plant response rating (0 to 100), Lambsquarters","lambsquarters; 250 g ai/ha, postemergence",85
same,"Plant response rating, Lambsquarters",lambsquarters; [1],70
same,"Plant response rating, Lambsquarters",lambsquarters; [2],70
same,"Plant response rating, Barnyardgrass",barnyardgrass,0
same,"Plant response rating, Crabgrass, Large",large (Lg) crabgrass; [3],90
same,"Plant response rating, Crabgrass, Large",large (Lg) crabgrass; [4],100
same,"Plant response rating (0 to 100), Oilseed Rape","oilseed rape; 125 g ai/ha, postemergence",80
same,"Plant response rating (0 to 100), Oilseed Rape","oilseed rape; 250 g ai/ha, postemergence",85
same,"Plant response rating, Oilseed Rape",oilseed rape; [1],30
same,"Plant response rating, Oilseed Rape",oilseed rape; [2],40
same,"Plant response rating (0 to 100), Morningglory","morningglory; 125 g ai/ha, postemergence",85
same,"Plant response rating (0 to 100), Morningglory","morningglory; 250 g ai/ha, postemergence",95
same,"Plant response rating, Morningglory",morningglory; [1],45
same,"Plant response rating, Morningglory",morningglory; [2],80
same,"Plant response rating (0 to 100), Ragweed","ragweed; 125 g ai/ha, postemergence",55
same,"Plant response rating (0 to 100), Ragweed","ragweed; 250 g ai/ha, postemergence",65
same,"Plant response rating, Ragweed",ragweed; [1],35
same,"Plant response rating, Ragweed",ragweed; [2],40
same,"Plant response rating (0 to 100), Soybean","soybean; 125 g ai/ha, postemergence",95
same,"Plant response rating (0 to 100), Soybean","soybean; 250 g ai/ha, postemergence",100
same,"Plant response rating, Soybean",soybean; [1],65
same,"Plant response rating, Soybean",soybean; [2],85
same,"Plant response rating, Velvetleaf",velvetleaf; [3],100
same,"Plant response rating, Velvetleaf",velvetleaf; [4],100
"FC(F)c1cnn(-c2ccccc2Oc2ncc(Cl)cn2)c1 [Compound 80, 5-chloro-2-[2-[4-(difluoromethyl)-1H-pyrazol-1-yl]phenoxy]pyrimidine]",plant injury at 125 g/ha,"wheat, winter; Triticum aestivum, post-emergence, 125 g ai/ha, postemergence, read-out: Plant response rating (0 to 100), Wheat",30%
same,plant injury at 31 g/ha,"wheat, winter; Triticum aestivum, post-emergence, Postemergence, 31 g ai/ha, scale 0 to 100 (0 no effect, 100 complete control), 13 to 15 days, read-out: Plant response rating, Wheat",0%
same,plant injury at 62 g/ha,"wheat, winter; Triticum aestivum, post-emergence, Postemergence, 62 g ai/ha, scale 0 to 100 (0 no effect, 100 complete control), read-out: Plant response rating, Wheat",5%
same,pest or weed control at 125 g/ha,"lambsquarters; Chenopodium album, post-emergence, 125 g ai/ha, postemergence, read-out: Plant response rating (0 to 100), Lambsquarters",55%
same,pest or weed control at 31 g/ha,"lambsquarters; Chenopodium album, post-emergence, Postemergence, 31 g ai/ha, scale 0 to 100 (0 no effect, 100 complete control), 13 to 15 days, read-out: Plant response rating, Lambsquarters",60%
same,pest or weed control at 62 g/ha,"lambsquarters; Chenopodium album, post-emergence, Postemergence, 62 g ai/ha, scale 0 to 100 (0 no effect, 100 complete control), read-out: Plant response rating, Lambsquarters",55%
same,pest or weed control at 250 g/ha,"barnyardgrass; Echinochloa crus-galli, read-out: Plant response rating, Barnyardgrass",0%
same,pest or weed control at 125 g/ha,"large (Lg) crabgrass; Digitaria sanguinalis, post-emergence, 240 h, 125 g ai/ha, 0 to 100 scale where 0 is no effect and 100 is complete control, read-out: Plant response rating, Crabgrass, Large",80%
same,pest or weed control at 500 g/ha,"large (Lg) crabgrass; Digitaria sanguinalis, post-emergence, 240 h, 500 g ai/ha, 0 to 100 scale, 0 no effect, 100 complete control, read-out: Plant response rating Crabgrass, Large",100%
same,plant injury at 125 g/ha,"oilseed rape; Brassica napus, post-emergence, 125 g ai/ha, postemergence, read-out: Plant response rating (0 to 100), Oilseed Rape",90%
same,plant injury at 31 g/ha,"oilseed rape; Brassica napus, post-emergence, Postemergence, 31 g ai/ha, scale 0 to 100 (0 no effect, 100 complete control), 13 to 15 days, read-out: Plant response rating, Oilseed Rape",70%
same,plant injury at 62 g/ha,"oilseed rape; Brassica napus, post-emergence, Postemergence, 62 g ai/ha, scale 0 to 100 (0 no effect, 100 complete control), read-out: Plant response rating, Oilseed Rape",80%
same,pest or weed control at 125 g/ha,"morningglory; Ipomoea, post-emergence, 125 g ai/ha, postemergence, read-out: Plant response rating (0 to 100), Morningglory",60%
same,pest or weed control at 31 g/ha,"morningglory; Ipomoea, post-emergence, Postemergence, 31 g ai/ha, scale 0 to 100 (0 no effect, 100 complete control), 13 to 15 days, read-out: Plant response rating, Morningglory",10%
same,pest or weed control at 62 g/ha,"morningglory; Ipomoea, post-emergence, Postemergence, 62 g ai/ha, scale 0 to 100 (0 no effect, 100 complete control), read-out: Plant response rating, Morningglory",60%
same,pest or weed control at 125 g/ha,"ragweed; Ambrosia artemisiifolia, post-emergence, 125 g ai/ha, postemergence, read-out: Plant response rating (0 to 100), Ragweed",45%
same,pest or weed control at 31 g/ha,"ragweed; Ambrosia artemisiifolia, post-emergence, Postemergence, 31 g ai/ha, scale 0 to 100 (0 no effect, 100 complete control), 13 to 15 days, read-out: Plant response rating, Ragweed",40%
same,pest or weed control at 62 g/ha,"ragweed; Ambrosia artemisiifolia, post-emergence, Postemergence, 62 g ai/ha, scale 0 to 100 (0 no effect, 100 complete control), read-out: Plant response rating, Ragweed",40%
same,"Soybean plant response rating (crop injury, 0-100 scale) at 125 g/ha","soybean; Glycine max, post-emergence, 125 g ai/ha, postemergence, read-out: Plant response rating (0 to 100), Soybean",80%
same,"Soybean plant response rating (crop injury, 0-100 scale) at 31 g/ha","soybean; Glycine max, post-emergence, Postemergence, 31 g ai/ha, scale 0 to 100 (0 no effect, 100 complete control), 13 to 15 days",60%
same,"Soybean plant response rating (crop injury, 0-100 scale) at 62 g/ha","soybean; Glycine max, post-emergence, Postemergence, 62 g ai/ha, scale 0 to 100 (0 no effect, 100 complete control)",75%
same,pest or weed control at 125 g/ha,"velvetleaf; Abutilon theophrasti, post-emergence, 240 h, 125 g ai/ha, 0 to 100 scale where 0 is no effect and 100 is complete control, read-out: Plant response rating, Velvetleaf",100%
same,pest or weed control at 500 g/ha,"velvetleaf; Abutilon theophrasti, post-emergence, 240 h, 500 g ai/ha, 0 to 100 scale where 0 is no effect and 100 is complete control, read-out: Plant response rating, Velvetleaf",100%
